Tests used:
[1] = target: T1, human LXRβ (Homo sapiens, UniProt P55055); experiment: Ligand-binding test procedure for human LXRβ (3H T0901317 competition, flash plates); details: for Binding ratio a/b: IC50 (μM) LXRα binding/IC50 (μM) LXRβ binding; for IC50: biotinylated hLXRβ, tracer 3H T0901317
T1 construct: biotin (biotinylated; biotinylation tag not described); made in house; host or cells: E. coli
T1 sequence (P55055 1-460): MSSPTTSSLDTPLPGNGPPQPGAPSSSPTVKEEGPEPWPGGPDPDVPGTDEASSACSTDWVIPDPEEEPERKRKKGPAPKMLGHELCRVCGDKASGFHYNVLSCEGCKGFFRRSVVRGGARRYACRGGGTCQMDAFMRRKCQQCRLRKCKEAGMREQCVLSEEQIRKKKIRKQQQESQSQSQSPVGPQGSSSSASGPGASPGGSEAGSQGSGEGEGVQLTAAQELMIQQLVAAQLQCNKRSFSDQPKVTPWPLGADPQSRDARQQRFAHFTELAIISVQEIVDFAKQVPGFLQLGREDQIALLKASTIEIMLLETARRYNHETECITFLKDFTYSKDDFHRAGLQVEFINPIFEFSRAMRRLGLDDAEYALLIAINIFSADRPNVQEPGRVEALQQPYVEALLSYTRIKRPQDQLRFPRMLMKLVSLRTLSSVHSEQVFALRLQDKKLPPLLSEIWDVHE

[2] = target: T2, human LXRα (Homo sapiens, UniProt Q13133); experiment: Ligand-binding test procedure for human LXRα (3H T0901317 competition, flash plates); details: biotinylated hLXRα, tracer 3H T0901317
T2 construct: biotin (biotinylated; biotinylation tag not described); made in house; host or cells: E. coli
T2 sequence (Q13133 1-447): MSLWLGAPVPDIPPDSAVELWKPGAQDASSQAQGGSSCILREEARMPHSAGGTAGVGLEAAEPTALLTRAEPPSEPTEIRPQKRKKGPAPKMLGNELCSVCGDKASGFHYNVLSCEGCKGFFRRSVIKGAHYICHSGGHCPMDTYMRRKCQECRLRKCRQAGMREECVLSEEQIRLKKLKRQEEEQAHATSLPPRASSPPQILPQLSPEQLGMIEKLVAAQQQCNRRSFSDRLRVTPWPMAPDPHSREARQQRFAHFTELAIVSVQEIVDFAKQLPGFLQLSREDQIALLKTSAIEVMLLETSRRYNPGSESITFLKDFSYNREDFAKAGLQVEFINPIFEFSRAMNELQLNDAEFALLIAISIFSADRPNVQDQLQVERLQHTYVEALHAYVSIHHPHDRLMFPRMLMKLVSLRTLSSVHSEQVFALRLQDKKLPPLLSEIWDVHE
Procedure, shortened: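 Competition binding of test ligands against 5 nM ³H tracer solution (pre-mix concentration) on biotinylated hLXRα from E. coli extract, captured on streptavidin flash plates (Bmax ~4000 cpm). Ligand dilution series made in DMSO. Incubated overnight at +4 °C; bound radioactivity counted after washing.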

| SMILES | Binding ratio a/b [1] | IC50 [1] | IC50 [2] |
| --- | --- | --- | --- |
| Cc1c(CC(=O)O)ccc(NCc2cccc(-c3ccnc4c(C(F)(F)F)cccc34)c2)c1C [Example 22, [2,3-dimethyl-4-({3-[8-(trifluoromethyl)quinolin-4-yl]benzyl}amino)phenyl]acetic acid] | 13 | 1370 nM | 17500 nM |
| O=C(O)Cc1cccc2cc(OCc3cccc(-c4c(Cc5ccccc5)cnc5c(C(F)(F)F)cccc45)c3)ccc12 [Example 57, [6-({3-[3-benzyl-8-(trifluoromethyl)quinolin-4-yl]benzyl}oxy)-1-naphthyl]acetic acid] | 5 | 55 nM | 267 nM |
| O=C(O)c1c(F)cccc1OCc1cccc(-c2c(Cc3ccccc3)cnc3c(C(F)(F)F)cccc23)c1 [Example 89, 2-({3-[3-benzyl-8-(trifluoromethyl)quinolin-4-yl]benzyl}oxy)-6-fluorobenzoic acid] | 2 | 1600 nM | 3980 nM |
| Cc1cc(NCc2cncc(-c3c(Cc4ccccc4)cnc4c(C(F)(F)F)cccc34)c2)c(C)cc1CC(=O)O [Example 2, {4-[({5-[3-benzyl-8-(trifluoromethyl)quinolin-4-yl]pyridin-3-yl}methyl)amino]-2,5-dimethylphenyl}acetic acid] | 36 | 5 nM | 185 nM |
| Cc1cc(C(=O)O)c(C)cc1NCc1cccc(-c2c(C)cnc3c(C(F)(F)F)cccc23)c1 [Example 25, 2,5-dimethyl-4-({3-[3-methyl-8-(trifluoromethyl)quinolin-4-yl]benzyl}amino)benzoic acid] | 10 | 104 nM | 1070 nM |
| O=C(O)c1c(F)cccc1NCc1cccc(-c2c(Cc3ccccc3)cnc3c(C(F)(F)F)cccc23)c1 [Example 58, 2-({3-[3-benzyl-8-(trifluoromethyl)quinolin-4-yl]benzyl}amino)-6-fluorobenzoic acid] | 5 | 25 nM | 121 nM |
| Cc1cc(NCc2cccc(-c3c(Cc4ccccc4)cnc4c(C(F)(F)F)cccc34)c2)ccc1C(=O)O [Example 75, 4-({3-[3-benzyl-8-(trifluoromethyl)quinolin-4-yl]benzyl}amino)-2-methylbenzoic acid] | 3 | 25 nM | 80 nM |
| Cc1cnc2c(C(F)(F)F)cccc2c1-c1cccc(CNc2ccc(CC(=O)O)c(C)c2C)c1 [Example 16, [2,3-dimethyl-4-({3-[3-methyl-8-(trifluoromethyl)quinolin-4-yl]benzyl}amino)phenyl]acetic acid] | 18 | 295 nM | 5190 nM |
| Cc1cc(NCc2cncc(-c3c(C)cnc4c(C(F)(F)F)cccc34)c2)c(C)cc1CC(=O)O [Example 117, {2,5-dimethyl-4-[({5-[3-methyl-8-(trifluoromethyl)quinolin-4-yl]pyridin-3-yl}methyl)amino]phenyl}acetic acid] |  | 2520 nM | > 1000 nM |
| O=C(O)Cc1ccc(NCc2cccc(-c3c(Cc4ccccc4)cnc4c(C(F)(F)F)cccc34)c2)cc1Cl [Example 50, [4-({3-[3-benzyl-8-(trifluoromethyl)quinolin-4-yl]benzyl}amino)-2-chlorophenyl]acetic acid] | 6 | 4 nM | 20 nM |
| Cc1cc(NCc2cccc(-c3ccnc4c(C(F)(F)F)cccc34)c2)c(C)cc1CC(=O)O [Example 4, [2,5-Dimethyl-4-({3-[8-(trifluoromethyl)quinolin-4-yl]benzyl}amino)phenyl]acetic acid] | 31 | 288 nM | 9030 nM |
| O=C(O)c1ccc(OCc2cccc(-c3c(Cc4ccccc4)cnc4c(C(F)(F)F)cccc34)c2)c(F)c1 [Example 84, 4-({3-[3-benzyl-8-(trifluoromethyl)quinolin-4-yl]benzyl}oxy)-3-fluorobenzoic acid] | 3 | 319 nM | 864 nM |
| Cc1c(C(=O)O)cc(Br)c(NCc2cccc(-c3c(Cc4ccccc4)cnc4c(C(F)(F)F)cccc34)c2)c1C [Example 108, 4-({3-[3-benzyl-8-(trifluoromethyl)quinolin-4-yl]benzyl}amino)-5-bromo-2,3-dimethylbenzoic acid] | 1 | 2730 nM | 3620 nM |
| O=C(O)c1cccc2c(NCc3cncc(-c4c(Cc5ccccc5)cnc5c(C(F)(F)F)cccc45)c3)cccc12 [Example 31, 5-[({5-[3-benzyl-8-(trifluoromethyl)quinolin-4-yl]pyridin-3-yl}methyl)amino]-1-naphthoic acid] | 8 | 210 nM | 1740 nM |
| Cc1ccc(OCc2cccc(-c3c(Cc4ccccc4)cnc4c(C(F)(F)F)cccc34)c2)c(C(=O)O)c1 [Example 102, 2-({3-[3-benzyl-8-(trifluoromethyl)quinolin-4-yl]benzyl}oxy)-5-methylbenzoic acid] | 2 | 2820 nM | 4760 nM |
| O=C(O)c1cccc(Oc2cccc(-c3c(Cc4ccccc4)cnc4c(C(F)(F)F)cccc34)c2)c1 [Example 126, 3-{3-[3-Benzyl-8-(trifluoromethyl)quinolin-4-yl]phenoxy}benzoic acid] | 2 | 135 nM | 241 nM |
| O=C(O)c1cccc(Oc2cccc(-c3c(Cc4ccccc4)cnc4c(Cl)cccc34)c2)c1 [Example 125, 3-[3-(3-Benzyl-8-chloroquinolin-4-yl)phenoxy]benzoic acid] | 1 | 228 nM | 267 nM |
| COc1ccc(C(=O)O)cc1C#Cc1cccc(-c2c(Cc3ccccc3)cnc3c(C(F)(F)F)cccc23)c1 [Example 131, 3-({3-[3-Benzyl-8-(trifluoromethyl)quinolin-4-yl]phenyl}ethynyl)-4-methoxybenzoic acid] | 2 | 1470 nM | 2630 nM |
| O=C(O)CC1=CCCc2c(OCc3cccc(-c4c(Cc5ccccc5)cnc5c(C(F)(F)F)cccc45)c3)cccc21 [Example 19, [5-({3-[3-benzyl-8-(trifluoromethyl)quinolin-4-yl]benzyl}oxy)-3,4-dihydronaphthalen-1-yl]acetic acid] | 16 | 8 nM | 133 nM |
| Cc1ccc(CC(=O)O)cc1OCc1cccc(-c2c(Cc3ccccc3)cnc3c(C(F)(F)F)cccc23)c1 [Example 62, [3-({3-[3-benzyl-8-(trifluoromethyl)quinolin-4-yl]benzyl}oxy)-4-methylphenyl]acetic acid] | 5 | 27 nM | 125 nM |
| CC(C)C[C@H](NC(=O)c1ccc(COc2cccc(-c3c(Cc4ccccc4)cnc4c(C(F)(F)F)cccc34)c2)cc1)C(=O)O [Example 81, N-[4-({3-[3-benzyl-8-(trifluoromethyl)quinolin-4-yl]phenoxy}methyl)benzoyl]leucine] | 3 | 236 nM | 654 nM |
| Cc1cc(NCc2cc(-c3c(Cc4ccccc4)cnc4c(C(F)(F)F)cccc34)cs2)c(C)cc1CC(=O)O [Example 70, {4-[({4-[3-benzyl-8-(trifluoromethyl)quinolin-4-yl]-2-thienyl}methyl)amino]-2,5-dimethylphenyl}acetic acid] | 4 | 2 nM | 7 nM |
| Cc1ccc(C(=O)O)c(NCc2cccc(-c3c(Cc4ccccc4)cnc4c(C(F)(F)F)cccc34)c2)c1 [Example 33, 2-({3-[3-benzyl-8-(trifluoromethyl)quinolin-4-yl]benzyl}amino)-4-methylbenzoic acid] | 8 | 166 nM | 1290 nM |
| C#CCC(C(=O)O)c1cccc2c(OCc3cccc(-c4ccnc5c(C(F)(F)F)cccc45)c3)cccc12 (centres unmarked) [Example 66, 2-[5-({3-[8-(trifluoromethyl)quinolin-4-yl]benzyl}oxy)-1-naphthyl]pent-4-ynoic acid] | 4 | 454 nM | 1950 nM |
| O=C(O)Cc1ccc(NCc2cncc(-c3c(Cc4ccccc4)cnc4c(C(F)(F)F)cccc34)c2)cc1 [Example 36, {4-[({5-[3-benzyl-8-(trifluoromethyl)quinolin-4-yl]pyridin-3-yl}methyl)amino]phenyl}acetic acid] | 7 | 191 nM | 1360 nM |
